In patent publication US6379959B1, “Metalocarboxypeptidase inhibitors and derived molecules used as antitumor agents” (Universitat Autonoma de Barcelona, priority 1996, dated 2002):
Like-named read-outs stand apart in the source and are kept apart here. Positions of bridges follow the written chain, without caps; N, C: chain ends. No end group written: not given here.

Assays:
[1] = tested on: human pancreatic adenocarcinoma cell line Capan-1; assay: Proliferation test with tetrazolium salts, Capan-1 in medium with serum; format: cell-based; conditions: 23 days
Description: In this test, with the aim of determining whether the presence of PCI in the culture medium produces some effect on the growth in vitro of the cellular lines, the final amount of cells was evaluated after a specific number of days, in presence and absence of inhibitor. The final number of cells was determined by means of tetrazolium salts (kit EZ4U) which, being added to the cultures, are reduced by mitochondrial enzymes of the cells, producing derivatives of formazan of a different colour. The amount of formed derivatives depends on the number of existing cells.
1. In a culture plate of 96 wells, in 48 of them, 5,000 cells were seed. Of these 48:
In 8 wells (control), 200 μL of full medium (DMEM+10%FBS) were added without PCI. […]
2. The cells were kept in an incubator at 37° C., 87% of relative humidity and 10% of CO2. The medium contained in the wells was changed every 3-4 days. The old medium was sucked out with a Pasteur pipette. Medium free of PCI was added to the control wells and, to the others, a medium with identical concentration of PCI to which they had previously, was also added.
3. After a specific number of days, the number of cells per well was evaluated by means of the following procedure:
To calculate the result of the test, the following was done: the average of the A620 of the blank ones was substracted from the A620 of each well. Immediately after, the result of the previous subtraction, as well as the average of the A450 of the blank ones was substracted from the A450 of each well. The result thus obtained is directly proportional to the amount of cells present in the well. Next, the average and the typical deviation was obtained from the results of the wells which had undergone identical treatment.
The effect of the presence of the PCI can be expressed employing the cell growth percentage in relation to the controls (without PCI) which is easily calculated: [formula]
A proliferation test with indirect determination of the number of cells by means of tetrazolium salts using the cell line Capan-1 was carried out. This is a human pancreatic adenocarcinoma cell line (ATCC nr. HTB-79), established by Fogh, G. et al. (1977) J. Natl. Cancer Inst., 58: 209-214, and Fogh, J. et al. (1977) J. Natl. Cancer Inst., 59: 221-226, from a liver metastasis.
As it has been explained, the cells were cultivated for 23 days, after which the cell growth was evaluated per well by means of tetrazolium salts. The results obtained are expressed in Table 3, where the average, the standard deviation and the standard error of the cell growth in relation to the controls are shown.

[2] = tested on: human pancreatic adenocarcinoma cell line Capan-1; assay: Apoptosis by DAPI labeling and fluorescence microscope; format: cell-based
Description: The studies of possible induction of apoptosis by the PCI were done with the human pancreatic adenocarcinoma cell line Capan-1. The detailed procedure that was employed is as follows:
1. 5×10^5 cells were seed in the chambers/slides and were cultured for 3 o 4 days (until the moment in which, through microscope observation, they presented 75% of confluence). The cells were cultured in DMEM+10% FBS.
2. […] A positive control was added, cysplatinum, at a concentration of 10 μg/mL (a drug which induces apoptosis in various tumor cell lines, Borner, M. M., et al. (1995) Cancer Res., 55: 2122-2128. The incubation period was 24 h.
3. The medium was removed after incubation and the chamber was washed with 2 mL of PBS.
5. Cells were fixed with 2 mL of 2% formaldehyde for 20 min at 4° C.
6. The plates were washed again with 2 mL of PBS for 5 min at room temperature.
7. Cell membranes were permeabilized with 0.25% Triton ×100 in PBS for 5 min at 4° C.
8. Washed with PBS for 5 min at room temperature.
9. The cells were labeled with DAPI at a final concentration of 2 μg/mL for 50 min in darkness at room temperature.
10. The preparation was fitted with the fluoroprep medium and it was examined through the fluorescence microscope.
% apoptosis=(number of apoptotic cells/total number of cells)×100

[3] = tested on: β2-microglobuline; assay: Gene expression analysis by Northern transfer, β2-microglobuline probe; format: cell-based, human; conditions: 12 days, Capan-1 (control 955)
Description: To verify whether the PCI plays any role in signal transduction, studies of gene expression were carried out by Northern transfer. The probes were: β2-microglobulin, p53 and trypsin. The β2-microglobulin is a constitutive gene that is used as a sample loading control in the gel. p53 is a transcription factor which, among other functions, controls the state of the genomic DNA and the cell cycle (Bates, S. & Vousden, K. H. (1996) Curr. Opin. Genet. Develop., 6: 12-19). If the DNA is damaged, p53 induces its repair and, if it is excessively damaged, it provokes programmed cellular death (apoptosis). Trypsin is a marker of pancreatic cells of the acinar type. The trypsin is not expressed by all the tumoral cells and it is believed that it is expressed by the cells with metastatic power and/or invasive power (Fernández, E. et al., (1994) Cancer, 73: 2285-2295). The probes employed are described as follows:
In the first place, 3×10^6 cells of the human pancreatic adenocarcinoma cell line Capan-1 were placed in each one of the 12 flasks of 150 cm^2. […] They were maintained in culture for 12 days period, changing their medium every 4 days, adding fresh PCI. […]
The quantifying of the hybridized filters with the respective probes was done using a Betascope 601 blot Analyzer counter (Betagen, USA). […]

[4] = tested on: human pancreatic adenocarcinoma cell line Panc-1; format: cell-based; conditions: SFM, 72 h

For “PCI: potato carboxypeptidase inhibitor, isoform IIa, obtained by recombinant DNA techniques in E. coli (SEQ ID NO.2) (EQHADPICNKPCKTHDDCSGAWFCQACWNSARTCGPYVG; disulfide 12-27, 18-34, 8-24)”, the “Growth (Percentage in relation to the average of the controls)” value ([1]; 0.1 µg/mL PCI in the medium, DMEM+10%FBS) was 19.4%, the “Growth (Percentage in relation to the average of the controls)” value ([1]; 1 µg/mL PCI in the medium) was 17.1% and the “Growth (Percentage in relation to the average of the controls)” value ([1]; 10 µg/mL PCI in the medium) was 50.0%. For the same substance, the “Growth (Percentage in relation to the average of the controls)” value ([1]; 50 µg/mL PCI in the medium) was 44.8%, the “Growth (Percentage in relation to the average of the controls)” value ([1]; 200 µg/mL PCI in the medium) was 43.3% and the “inhibition of the growth” value ([1]; concentrations of 0.1 and 1 μg/mL) was “higher than 80%”. For the same substance, the “inhibition of the growth” value ([1]; concentrations of 10, 50 and 200 μg/mL) was roughly 50%, the “% Apoptosis” value ([2]; 0,1 mg/mL PCI, 24 h (negative control 0.08)) was 0.11% and the “% Apoptosis” value ([2]; 10 mg/mL PCI, 24 h) was 0.095%. For the same substance, the “% Apoptosis” value ([2]; 50 mg/mL PCI, 24 h) was 0.41%, the “% Apoptosis” value ([2]; 200 mg/mL PCI, 24 h) was 0.038% and the “index of apoptosis relative to the control” value ([2]; PCI 50 μg/mL, 24 h) was 5 times. The “beta counts, β2-microglobuline probe” value ([3]; 1 mg/mL PCI) was 2183, the “beta counts, β2-microglobuline probe” value ([3]; 10 mg/mL PCI) was 6287 and the “Growth (Percentage in relation to the average of the controls)” value ([4]; EGF 10 ng/mL + 50 mg/mL wtPCI) was 15.81%. For the same substance, the “Growth (Percentage in relation to the average of the controls)” value ([4]; Insulin 5 mg/mL + 50 mg/mL wtPCI) was 26.34%.
